Assay results taken from publication PMC5848141, “A Pyridazine-Based Fluorescent Probe Targeting Aβ Plaques in Alzheimer's Disease” (Journal of Analytical Methods in Chemistry, 2018).

Biological target: T1, β-amyloid Aβ42 (aggregates) (Homo sapiens, UniProt P05067)
T1 construct: gene APP; synthetic Aβ42 peptide, aggregated (fibrils)
Assay: fluorescence saturation titration of probe with […] aggregated Aβ[…] in PBS
Format: binding
Conditions: read-out: Probe 3

T1 sequence (P05067 672-713 limits assumed): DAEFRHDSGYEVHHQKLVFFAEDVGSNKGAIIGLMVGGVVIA

Kd: 350 ± 30 nM
Structure (SMILES): CN(C)c1ccc(/C=C/n2ncc3c(c2=O)Oc2ccc(C=C(C#N)C(=O)O)cc2O3)cc1 [compound 3, probe 3]
